We go through eleven compounds from ChEMBL document CHEMBL3046869, “Investigation of myorelaxant activity of 9-aryl-3,4,6,7-tetrahydroacridine-1,8-(2H,5H,9H,10H)-diones in isolated rabbit gastric fundus” (2012).

Calls of active or inactive are those of the source. The calls are words filed in the database; no cut-off is given here.

What all share (conditions): Stomach
The species named for test [1] is Oryctolagus cuniculus. The test can be described thus: Activation of potassium channel in noradrenaline-precontracted New Zealand Oryctolagus cuniculus (rabbit) gastric fundus smooth muscle strips assessed as muscle relaxant activity relative to control. It is filed as tissue-based.
Test [2] is filed under the species Oryctolagus cuniculus. Briefly: Activation of potassium channel in noradrenaline-precontracted New Zealand Oryctolagus cuniculus (rabbit) gastric fundus smooth muscle strips assessed as muscle relaxant activity. It is filed as tissue-based.
Test [3] relates to Gastric fundus smooth muscle. The test can be described thus: Myorelaxant activity in noradrenaline-precontracted New Zealand Oryctolagus cuniculus (rabbit) gastric fundus smooth muscle strips in presence of small-conductance Ca2+-activated K+ channel blocker apamine. It is filed as functional.
Test [4] concerns Gastric fundus smooth muscle. The test can be described thus: Myorelaxant activity in noradrenaline-precontracted New Zealand Oryctolagus cuniculus (rabbit) gastric fundus smooth muscle strips in presence of K-ATP channel blocker glibenclamide. The format is functional.
For test [5], the system named is Gastric fundus smooth muscle. Briefly: Myorelaxant activity in noradrenaline-precontracted New Zealand Oryctolagus cuniculus (rabbit) gastric fundus smooth muscle strips in presence of KV blocker 4-aminopyridine.
The subject of test [6] is Gastric fundus smooth muscle. Briefly: Myorelaxant activity in noradrenaline-precontracted New Zealand Oryctolagus cuniculus (rabbit) gastric fundus smooth muscle strips in presence of Ca2+-activated K+ channel blocker TEA. The format is functional.
Test [7] relates to Gastric fundus smooth muscle. Briefly: Myorelaxant activity in noradrenaline-precontracted New Zealand Oryctolagus cuniculus (rabbit) gastric fundus smooth muscle strips in presence of large-conductance Ca2+-activated K+ channel blocker iberiotoxin. The format is functional.

As for `CC(N/C(=N\C#N)Nc1ccncc1)C(C)(C)C` (configuration not stated), the Emax (as a rule, the maximal effect, on the per cent scale that the assay sets) in test [1] stood at 73.5%. In addition, the pD2 in test [2] stood at 4.9.
In the case of `CC1CC(=O)C2=C(C1)NC1=C(C(=O)CC(C)C1)C2c1ccc([N+](=O)[O-])cc1` (configuration not stated), the Emax in test [3] stood at 54.5%; in test [4], 52%; in test [1] it was 53.9%; in test [5], 51.4%; in test [6] it was 74.4%; in test [7], 82.5%. In addition, the pD2 in test [2] was 4.66.
`CC1CC(=O)C2=C(C1)NC1=C(C(=O)CC(C)C1)C2c1ccccc1F` (configuration not stated): the Emax entry in test [3], in test [4], in test [1], in test [5], in test [6] and in test [7] was “inactive” in each case. Besides, the pD2 result in test [2] is “inactive”.
Regarding `CC1CC(=O)C2=C(C1)NC1=C(C(=O)CC(C)C1)C2c1cccc(C(F)(F)F)c1` (configuration not stated), the Emax entry in test [3], in test [4], in test [1], in test [5], in test [6] and in test [7] was “inactive” throughout. In addition, the pD2 entry in test [2] was “inactive”.
As for `CC1CC(=O)C2=C(C1)NC1=C(C(=O)CC(C)C1)C2c1cccc([N+](=O)[O-])c1` (configuration not stated), the Emax in test [3] stood at 35.3%; in test [4] it was 51.8%; in test [1], 62.1%; in test [5], 54.1%; in test [6], 54.6%; in test [7] it was 54.4%. Besides, the pD2 in test [2] is 4.57.
On to `CC1CC(=O)C2=C(C1)NC1=C(C(=O)CC(C)C1)C2c1ccccc1C(F)(F)F` (configuration not stated), for which the Emax entry in test [3], in test [4], in test [1], in test [5], in test [6] and in test [7] was “inactive” each time. Besides, in test [2], the pD2 entry is “inactive”.
For `CC1CC(=O)C2=C(C1)NC1=C(C(=O)CC(C)C1)C2c1ccccc1[N+](=O)[O-]` (configuration not stated), the Emax entry in test [3], in test [4], in test [1], in test [5], in test [6] and in test [7] was “inactive” in each case. Besides, in test [2], the pD2 entry was “inactive”.
Turning to `CC1CC(=O)C2=C(C1)NC1=C(C(=O)CC(C)C1)C2c1ccc(C(F)(F)F)cc1` (configuration not stated), the maximum response (Emax) came out at 26.7% in test [3]; 43.8% in test [4]; 33.8% in test [1]; 14% in test [5]; 35.1% in test [6]; 43.3% in test [7]. Besides, the pD2 in test [2] worked out at 4.68.
As to `CC1CC(=O)C2=C(C1)NC1=C(C(=O)CC(C)C1)C2c1cccc(C#N)c1` (configuration not stated), the maximal response (Emax) in test [3] was 60.6%; in test [4], 66%; in test [1] it was 56%; in test [5], 32.3%; in test [6], 44.6%; in test [7], 30.9%. The pD2 in test [2] was 4.7.
Take `CC1CC(=O)C2=C(C1)NC1=C(C(=O)CC(C)C1)C2c1ccc(F)cc1` (configuration not stated): the maximal response (Emax) worked out at 39.3% in test [3]; 46.7% in test [4]; 37.2% in test [1]; 21.8% in test [5]; 18.8% in test [6]; 39.1% in test [7]. Also, in test [2], the pD2 was determined as 4.6.
On to `CC1CC(=O)C2=C(C1)NC1=C(C(=O)CC(C)C1)C2c1ccc(C#N)cc1` (configuration not stated), for which the maximal response (Emax) in test [3] came out at 45.7%; in test [4] it was 45.2%; in test [1], 46%; in test [5], 51.1%; in test [6] it was 45.2%; in test [7], 52%. For the same compound, the pD2 in test [2] worked out at 4.57.
